Results reported in patent US20260078158A1, “COMPOSITIONS COMPRISING CXCL10-DERIVED PEPTIDES AND METHODS OF USE THEREOF” (priority 2022, published 2026).
“And” between values parts separate entries of the source, which are not always exact repeats. Identical values can stand only once. Like-named read-outs stand apart in the source and are kept apart here.

Key:
Enterococcus faecalis = assay: microbe, parasite or virus in culture; assay type: cell-based; conditions: acetate formulation, in µg/mL
Enterococcus faecium = assay: microbe, parasite or virus in culture; assay type: cell-based; conditions: acetate formulation
[1] = system: Acinetobacter baumannii-calcoaceticus complex; assay: microbe, parasite or virus in culture; assay type: cell-based; conditions: acetate formulation
Escherichia coli = assay: microbe, parasite or virus in culture; assay type: cell-based; conditions: acetate formulation
[2] = system: E. cloacae species complex; assay: microbe, parasite or virus in culture; assay type: cell-based, Enterobacter cloacae; conditions: acetate formulation
Pseudomonas aeruginosa = assay: microbe, parasite or virus in culture; assay type: cell-based; conditions: acetate formulation, in µg/mL
Streptococcus pneumoniae = assay: microbe, parasite or virus in culture; assay type: cell-based; conditions: acetate formulation, in µg/mL
Staphylococcus aureus = assay: microbe, parasite or virus in culture; assay type: cell-based; conditions: acetate formulation, in µg/mL
Klebsiella pneumoniae = system: Klebsiella pneumoniae; set-up: MIC: unit not given beside the values; conditions: strain ATCC 43816, sponsor, acetate formulation

Sequence: RYVRCRCI [Peptide P194]
- MIC (Enterococcus faecalis; strain 1204777, VRE, replicate R1): 4
- MIC (Enterococcus faecalis; strain 1204777, VRE, replicate R2): 2
- MIC (Enterococcus faecalis; strain 1211589, VRE, replicate R1): 4
- MIC (Enterococcus faecalis; strain 1211589, VRE, replicate R2): 2
- MIC (Enterococcus faecalis; strain ATCC 29212, QC, replicate R1): 4
- MIC (Enterococcus faecalis; strain ATCC 29212, QC, replicate R2): 4
- MIC (Enterococcus faecium; strain 1196024, VRE, replicate R1): 2 µg/mL
- MIC (Enterococcus faecium; strain 1196024, VRE, replicate R2): 2 µg/mL
- MIC (Enterococcus faecium; strain 1208412, VRE, replicate R1): 2 µg/mL
- MIC (Enterococcus faecium; strain 1208412, VRE, replicate R2): 1 µg/mL
- MIC (Enterococcus faecium; strain 1222807, VSE, replicate R1): 2 µg/mL
- MIC (Enterococcus faecium; strain 1222807, VSE, replicate R2): 1 µg/mL
- MIC ([1]; strain 1204424, non-MDR, replicate R1): 8 µg/mL
- MIC ([1]; strain 1204424, non-MDR, replicate R2): 8 µg/mL
- MIC ([1]; strain 1208060, non-MDR, replicate R1): 8 µg/mL
- MIC ([1]; strain 1208060, non-MDR, replicate R2): 4 µg/mL
- MIC ([1]; strain 1215088, MDR, replicate R1): 8 µg/mL
- MIC ([1]; strain 1215088, MDR, replicate R2): 4 µg/mL
- MIC ([1]; strain 1215098, MDR, replicate R1): 16 µg/mL
- MIC ([1]; strain 1215098, MDR, replicate R2): 8 µg/mL
- MIC ([1]; strain 1216520, non-MDR, replicate R1): 8 µg/mL
- MIC ([1]; strain 1216520, non-MDR, replicate R2): 4 µg/mL
- MIC (Escherichia coli; strain 1191008, MDR, ESBL, replicate R1): 8 µg/mL
- MIC (Escherichia coli; strain 1191008, MDR, ESBL, replicate R2): 8 µg/mL
- MIC (Escherichia coli; strain 1231795, MDR, ESBL, replicate R1): 8 µg/mL
- MIC (Escherichia coli; strain 1231795, MDR, ESBL, replicate R2): 8 µg/mL
- MIC (Escherichia coli; strain 1232428, MDR (COL-R), ESBL, replicate R1): 16 µg/mL
- MIC (Escherichia coli; strain 1232428, MDR (COL-R), ESBL, replicate R2): 8 µg/mL
- MIC (Escherichia coli; strain 1248389, ESBL, replicate R1): 8 µg/mL
- MIC (Escherichia coli; strain 1248389, ESBL, replicate R2): 8 µg/mL
- MIC (Escherichia coli; strain ATCC 25922, QC, replicate R1): 8 (3×) and 4
- MIC (Escherichia coli; strain ATCC 25922, QC, replicate R2): 4 and 8 (2×)
- MIC (Escherichia coli; strain ATCC BAA-2452, NDM-1, replicate R1): 8 µg/mL
- MIC (Escherichia coli; strain ATCC BAA-2452, NDM-1, replicate R2): 4 µg/mL
- MIC ([2]; Enterobacter cloacae strain 1230117, non-MDR, replicate R1): 8 µg/mL
- MIC ([2]; Enterobacter cloacae strain 1230117, non-MDR, replicate R2): 8 µg/mL
- MIC ([2]; strain 1197959, non-MDR, replicate R1): 16 µg/mL
- MIC ([2]; strain 1197959, non-MDR, replicate R2): 16 µg/mL
- MIC ([2]; strain 1204419, non-MDR, replicate R1): 16 µg/mL
- MIC ([2]; strain 1204419, non-MDR, replicate R2): 16 µg/mL
- MIC ([2]; strain 1230601, non-MDR, replicate R1): 16 µg/mL
- MIC ([2]; strain 1230601, non-MDR, replicate R2): 8 µg/mL
- MIC ([2]; strain 1232701, MDR, replicate R1): 16 µg/mL
- MIC ([2]; strain 1232701, MDR, replicate R2): 16 µg/mL
- MIC (Pseudomonas aeruginosa; strain 1190985, non-MDR, replicate R1): 32
- MIC (Pseudomonas aeruginosa; strain 1190985, non-MDR, replicate R2): 32
- MIC (Pseudomonas aeruginosa; strain 1202638, MDR, replicate R1): 32
- MIC (Pseudomonas aeruginosa; strain 1202638, MDR, replicate R2): 32
- MIC (Pseudomonas aeruginosa; strain 1210081, non-MDR, replicate R1): 32
- MIC (Pseudomonas aeruginosa; strain 1210081, non-MDR, replicate R2): 32
- MIC (Pseudomonas aeruginosa; strain 1242554, non-MDR, replicate R1): 32
- MIC (Pseudomonas aeruginosa; strain 1242554, non-MDR, replicate R2): 16
- MIC (Pseudomonas aeruginosa; strain 1263496, MDR, replicate R1): 16
- MIC (Pseudomonas aeruginosa; strain 1263496, MDR, replicate R2): 8
- MIC (Pseudomonas aeruginosa; strain ATCC 27853, QC, replicate R1): 16
- MIC (Pseudomonas aeruginosa; strain ATCC 27853, QC, replicate R2): 8
- MIC (Streptococcus pneumoniae; strain 1200385, PEN-S, replicate R1): 32
- MIC (Streptococcus pneumoniae; strain 1200385, PEN-S, replicate R2): 32
- MIC (Streptococcus pneumoniae; strain 1219456, PEN-R, replicate R1): 32
- MIC (Streptococcus pneumoniae; strain 1219456, PEN-R, replicate R2): 32
- MIC (Streptococcus pneumoniae; strain 1219876, PEN-R, replicate R1): 32
- MIC (Streptococcus pneumoniae; strain 1219876, PEN-R, replicate R2): 32
- MIC (Streptococcus pneumoniae; strain 1223661, PEN-R, replicate R1): 32
- MIC (Streptococcus pneumoniae; strain 1223661, PEN-R, replicate R2): 32
- MIC (Streptococcus pneumoniae; strain 1227224, PEN-S, replicate R1): 16
- MIC (Streptococcus pneumoniae; strain 1227224, PEN-S, replicate R2): 32
- MIC (Streptococcus pneumoniae; strain ATCC 49619, QC, replicate R1): 16
- MIC (Streptococcus pneumoniae; strain ATCC 49619, QC, replicate R2): 16
- MIC (Staphylococcus aureus; strain 1124691, MRSA (USA300)/MDR, replicate R1): 32
- MIC (Staphylococcus aureus; strain 1182822, replicate R2): 32
- MIC (Staphylococcus aureus; strain 1189667, MRSA/MDR, replicate R1): 32
- MIC (Staphylococcus aureus; strain 1189667, MRSA/MDR, replicate R2): 16
- MIC (Staphylococcus aureus; strain 1189809, MRSA/MDR, replicate R1): 32
- MIC (Staphylococcus aureus; strain 1189809, MRSA/MDR, replicate R2): 32
- MIC (Staphylococcus aureus; strain 1190388, MRSA, replicate R1): 32
- MIC (Staphylococcus aureus; strain 1190388, MRSA, replicate R2): 16
- MIC (Staphylococcus aureus; strain 1221979, MRSA, replicate R1): 32
- MIC (Staphylococcus aureus; strain 1221979, MRSA, replicate R2): 32
- MIC (Staphylococcus aureus; strain ATCC 29213, QC, replicate R1): 32
- MIC (Staphylococcus aureus; strain ATCC 29213, QC, replicate R2): 32
- MIC (Klebsiella pneumoniae; replicate R1): 8 (3×) and 4
- MIC (Klebsiella pneumoniae; replicate R2): 8 and 4 (2×)
